For orientation: IC50 means the concentration that inhibits the measured activity by half.

Starred links: 1 amine or outer side, 2 acyl side, 3 side chain; linkers in the order of their positions; H or OH if unused. Positions of bridges follow the written chain, without caps; N, C: chain ends. Non-standard residues stand in square brackets, D forms with d. Residues, ends and D or L forms follow the SMILES beside them. *: point of attachment. Phe(3,4-(OMe)2) = COc1ccc(C[C@H](N)C(=O)O)cc1OC; Abu(4-yl) = O=C([C@H](CC[*:3])N[*:1])[*:2]; 2Nal = N[C@@H](Cc1ccc2ccccc2c1)C(=O)O; AEF = NCCOc1ccc(C[C@H](N)C(=O)O)cc1; Cyclopropanecarbonyl = O=C(C1CC1)*; αMeF = C[C@](N)(Cc1ccccc1)C(=O)O; αMeE = C[C@](N)(CCC(=O)O)C(=O)O; Pen = CC(C)(S)[C@H](N)C(=O)O; αMeK = C[C@](N)(CCCCN)C(=O)O; Thp = NC1(C(=O)O)CCOCC1; Aib = CC(C)(N)C(=O)O; Propionyl = CCC(=O)*

We go through 14 compounds from patent publication US20240383954A1, “PEPTIDE INHIBITORS OF INTERLEUKIN-23 RECEPTOR AND THEIR USE TO TREAT INFLAMMATORY DISEASES” (Janssen Biotech, Inc., priority 2020, published 2024).
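Note: cryopreserved PBMCs stimulated at 37 °C in 5% CO2, then lysed, with phosphorylated STAT3 quantified in lysates using a phospho-STAT panel kit.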

The target of this assay is IL-23R (Homo sapiens, UniProt Q5VWK5). Description: cell-based. Conditions: PBMC pSTAT3 IC50 (nM), PBMCs from healthy donors, IL-23 5 ng/mL, 30 minutes, phosphorylated STAT3.
Sequence of IL-23R (Q5VWK5 24-629): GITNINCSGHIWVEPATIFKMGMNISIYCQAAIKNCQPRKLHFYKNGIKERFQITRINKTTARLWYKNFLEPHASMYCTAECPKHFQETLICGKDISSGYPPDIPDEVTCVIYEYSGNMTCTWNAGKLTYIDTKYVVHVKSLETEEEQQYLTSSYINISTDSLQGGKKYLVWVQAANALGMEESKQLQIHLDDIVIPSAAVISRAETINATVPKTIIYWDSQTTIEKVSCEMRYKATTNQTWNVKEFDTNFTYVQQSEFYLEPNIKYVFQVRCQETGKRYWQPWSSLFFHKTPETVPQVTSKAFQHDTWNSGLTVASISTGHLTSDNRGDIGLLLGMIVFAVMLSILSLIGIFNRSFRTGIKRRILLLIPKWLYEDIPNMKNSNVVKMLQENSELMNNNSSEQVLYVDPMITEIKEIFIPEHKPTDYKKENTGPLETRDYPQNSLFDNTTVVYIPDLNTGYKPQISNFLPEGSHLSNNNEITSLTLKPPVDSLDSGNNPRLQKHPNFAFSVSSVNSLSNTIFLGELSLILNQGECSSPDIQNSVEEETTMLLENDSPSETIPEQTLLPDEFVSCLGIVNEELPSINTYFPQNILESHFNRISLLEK
`CC(=O)N[C@H](CCCNC(=N)N)C(=O)N[C@H]1CCSC[C@@H](C(=O)N[C@@H](Cc2ccc(OCCN)cc2)C(=O)N[C@@H](Cc2ccc3ccccc3c2)C(=O)NC2(C(=O)N[C@@](C)(CCC(=O)O)C(=O)N[C@@H](CC(N)=O)C(=O)NC3(C(N)=O)CCOCC3)CCOCC2)NC(=O)[C@H](CCC(N)=O)NC(=O)[C@H](Cc2c[nH]c3ccccc23)NC(=O)[C@H]([C@@H](C)O)NC(=O)[C@H](CCC(N)=O)NC1=O` [Compound 37, Ac-[(D)Arg]-[Abu]-Q-T-W-Q-[Cys]-Phe[4-(2-aminoethoxy)]-[2-Nal]-[THP]-[aMeGlu]-N-[THP]-NH2] came in with an IC50 of 11 nM.
Consider `COc1ccc(C[C@H](NC(=O)[C@@H]2CSCC[C@H](NC(=O)[C@@H](CCCNC(=N)N)NC(C)=O)C(=O)N[C@@H](CCC(N)=O)C(=O)N[C@@H]([C@@H](C)O)C(=O)N[C@@H](Cc3c[nH]c4ccccc34)C(=O)N[C@@H](CCC(N)=O)C(=O)N2)C(=O)N[C@@H](Cc2ccc3ccccc3c2)C(=O)NC2(C(=O)N[C@@](C)(CCC(=O)O)C(=O)N[C@@H](CC(N)=O)C(=O)N[C@@](C)(Cc3ccccc3)C(N)=O)CCOCC2)cc1OC` [Compound 41, Ac-[(D)Arg]-[Abu]-Q-T-W-Q-[Cys]-[Phe(3,4-diOMe)]-[2-Nal]-[THP]-[aMeGlu]-N-[a-MePhe]-NH2] (Ac-[dR][Abu(4-yl)]QTWQC[Phe(3,4-(OMe)2)][2Nal][Thp][αMeE]N[αMeF]-NH2; thioether 2-7), for which half-maximal inhibition (IC50) was put at 2500 nM.
`CC(=O)N[C@H](CCCNC(=N)N)C(=O)N[C@H]1CCSC[C@@H](C(=O)N[C@@H](Cc2ccc(OCCN)cc2)C(=O)N[C@@H](Cc2ccc3ccccc3c2)C(=O)NC2(C(=O)N[C@@](C)(CCC(=O)O)C(=O)N[C@@H](CC(N)=O)C(=O)N[C@@H](Cc3ccccc3)C(=O)NC(C)(C)C(=O)N[C@@](C)(CCCCN)C(N)=O)CCOCC2)NC(=O)[C@H](CCC(N)=O)NC(=O)[C@H](Cc2c[nH]c3ccccc23)NC(=O)[C@H]([C@@H](C)O)NC(=O)[C@H](CCC(N)=O)NC1=O` [Compound 43, Ac-[(D)Arg]-[Abu]-Q-T-W-Q-[Cys]-Phe[4-(2-aminoethoxy)]-[2-Nal]-[THP]-[aMeGlu]-N-F-[Aib]-[a-MeLys]-NH2] (Ac-[dR][Abu(4-yl)]QTWQC[AEF][2Nal][Thp][αMeE]NF[Aib][αMeK]-NH2; thioether 2-7) came in with an IC50 of 8.2 nM. Compared with the last compound, the IC50 is about 300-fold lower.
Compound `CC(=O)N[C@H](CCCNC(=N)N)C(=O)N[C@H]1CCSC[C@@H](C(=O)N[C@@H](Cc2ccc(OCCN)cc2)C(=O)N[C@@H](Cc2ccc3ccccc3c2)C(=O)NC2(C(=O)N[C@@](C)(CCC(=O)O)C(=O)N[C@@H](CC(N)=O)C(=O)N[C@@](C)(Cc3ccc(O)cc3)C(N)=O)CCOCC2)NC(=O)[C@H](CCC(N)=O)NC(=O)[C@H](Cc2c[nH]c3ccccc23)NC(=O)[C@H]([C@@H](C)O)NC(=O)[C@H](CCC(N)=O)NC1=O` [Compound 44, Ac-[(D)Arg]-[Abu]-Q-T-W-Q-[Cys]-Phe[4-(2-aminoethoxy)]-[2-Nal]-[THP]-[aMeGlu]-N-[aMeTyr]-NH2] came in with an IC50 of 9.3 nM.
Take `CC(=O)N[C@H](CCCNC(=N)N)C(=O)N[C@H]1CCSC[C@@H](C(=O)N[C@@H](Cc2ccc(OCCN)cc2)C(=O)N[C@@H](Cc2ccc3ccccc3c2)C(=O)NC2(C(=O)N[C@@](C)(CCC(=O)O)C(=O)N[C@@H](CC(N)=O)C(=O)N[C@@H](Cc3cc(F)cc(F)c3)C(N)=O)CCOCC2)NC(=O)[C@H](CCC(N)=O)NC(=O)[C@H](Cc2c[nH]c3ccccc23)NC(=O)[C@H]([C@@H](C)O)NC(=O)[C@H](CCC(N)=O)NC1=O` [Compound 46, Ac-[(D)Arg]-[Abu]-Q-T-W-Q-[Cys]-Phe[4-(2-aminoethoxy)]-[2-Nal]-[THP]-[aMeGlu]-N-[Phe(3,5-diF)]-NH2]: the midpoint of inhibition, the IC50, lay at 48 nM.
For the compound `C[C@@H](O)[C@@H]1NC(=O)[C@H](CCC(N)=O)NC(=O)[C@@H](NC(=O)[C@H](N)CCCNC(=N)N)CCSC[C@@H](C(=O)N[C@@H](Cc2ccc(OCCNC(=O)OC(C)(C)C)cc2)C(=O)N[C@@H](Cc2ccc3ccccc3c2)C(=O)NC2(C(=O)N[C@@H](CCC(=O)O)C(=O)N[C@@H](CC(N)=O)C(=O)NC3(C(N)=O)CCOCC3)CCOCC2)NC(=O)[C@H](CCC(N)=O)NC(=O)[C@H](Cc2c[nH]c3ccccc23)NC1=O` [Compound 47, [(D)Arg]-[Abu]-Q-T-W-Q-[Cys]-Phe[4-(2-(Boc)aminoethoxy)]-[2-Nal]-[THP]-E-N-[THP]-NH2], the IC50 was found to be 5.3 nM.
Compound `CC(=O)N[C@H](CCCNC(=N)N)C(=O)N[C@H]1CCSC[C@@H](C(=O)N[C@@H](Cc2ccc(OCCN)cc2)C(=O)N[C@@H](Cc2ccc3ccccc3c2)C(=O)NC2(C(=O)NC(C)(C)C(=O)N[C@@H](CC(N)=O)C(=O)N[C@@H](Cc3ccccc3)C(N)=O)CCOCC2)NC(=O)[C@H](CCC(N)=O)NC(=O)[C@H](Cc2c[nH]c3ccccc23)NC(=O)[C@H]([C@@H](C)O)NC(=O)[C@H](CCC(N)=O)NC1=O` [Compound 49, Ac-[(D)Arg]-[Abu]-Q-T-W-Q-[Cys]-Phe[4-(2-aminoethoxy)]-[2-Nal]-[THP]-[Aib]-N-F-NH2] (Ac-[dR][Abu(4-yl)]QTWQC[AEF][2Nal][Thp][Aib]NF-NH2; thioether 2-7) displayed a half-maximal inhibitory concentration (IC50) of 18 nM.
With `CC(=O)N[C@H](CCCNC(=N)N)C(=O)N[C@@H]1C(=O)N[C@@H](CCC(N)=O)C(=O)N[C@@H]([C@@H](C)O)C(=O)N[C@@H](Cc2c[nH]c3ccccc23)C(=O)N[C@@H](CCC(N)=O)C(=O)N[C@H](C(=O)N[C@@H](Cc2ccc(OCCN)cc2)C(=O)N[C@@H](Cc2ccc3ccccc3c2)C(=O)NC2(C(=O)N[C@@H](CCCCNC(=O)C3CC3)C(=O)N[C@@H](CC(N)=O)C(=O)NC3(C(N)=O)CCOCC3)CCOCC2)C(C)(C)SSC1(C)C` [Compound 51, Ac-[(D)Arg]-[Pen]-Q-T-W-Q-[Pen]-Phe[4-(2-aminoethoxy)]-[2-Nal]-[THP]-[Lys(COcPr)]-N-[THP]-NH2] the figure was 27 nM; with `CCCC(=O)NCCCC[C@H](NC(=O)C1(NC(=O)[C@H](Cc2ccc3ccccc3c2)NC(=O)[C@H](Cc2ccc(OCCN)cc2)NC(=O)[C@H]2NC(=O)[C@H](CCC(N)=O)NC(=O)[C@H](Cc3c[nH]c4ccccc34)NC(=O)[C@H]([C@@H](C)O)NC(=O)[C@H](CCC(N)=O)NC(=O)[C@@H](NC(=O)[C@@H](CCCNC(=N)N)NC(C)=O)C(C)(C)SSC2(C)C)CCOCC1)C(=O)N[C@@H](CC(N)=O)C(=O)NC1(C(N)=O)CCOCC1` [Compound 52, Ac-[(D)Arg]-[Pen]-Q-T-W-Q-[Pen]-Phe[4-(2-aminoethoxy)]-[2-Nal]-[THP]-[Lys(COPr)]-N-[THP]-NH2], 16 nM; with `CC(=O)NCCCC[C@H](NC(=O)C1(NC(=O)[C@H](Cc2ccc3ccccc3c2)NC(=O)[C@H](Cc2ccc(OCCN)cc2)NC(=O)[C@H]2NC(=O)[C@H](CCC(N)=O)NC(=O)[C@H](Cc3c[nH]c4ccccc34)NC(=O)[C@H]([C@@H](C)O)NC(=O)[C@H](CCC(N)=O)NC(=O)[C@@H](NC(=O)[C@@H](CCCNC(=N)N)NC(C)=O)C(C)(C)SSC2(C)C)CCOCC1)C(=O)N[C@@H](CC(N)=O)C(=O)N[C@@H](Cc1ccccc1)C(N)=O` [Compound 53, Ac-[(D)Arg]-[Pen]-Q-T-W-Q-[Pen]-Phe[4-(2-aminoethoxy)]-[2-Nal]-[THP]-[Lys(Ac)]-N-F-NH2] (Ac-[dR][Pen]QTWQ[Pen][AEF][2Nal][Thp]K(Ac)NF-NH2; disulfide 2-7), 29 nM.
In turn, `CCC(=O)NCCCC[C@H](NC(=O)C1(NC(=O)[C@H](Cc2ccc3ccccc3c2)NC(=O)[C@H](Cc2ccc(OCCN)cc2)NC(=O)[C@H]2NC(=O)[C@H](CCC(N)=O)NC(=O)[C@H](Cc3c[nH]c4ccccc34)NC(=O)[C@H]([C@@H](C)O)NC(=O)[C@H](CCC(N)=O)NC(=O)[C@@H](NC(=O)[C@@H](CCCNC(=N)N)NC(C)=O)C(C)(C)SSC2(C)C)CCOCC1)C(=O)N[C@@H](CC(N)=O)C(=O)N[C@@H](Cc1ccccc1)C(N)=O` [Compound 54, Ac-[(D)Arg]-[Pen]-Q-T-W-Q-[Pen]-Phe[4-(2-aminoethoxy)]-[2-Nal]-[THP]-[Lys(COEt)]-N-F-NH2] (Ac-[dR][Pen]QTWQ[Pen][AEF][2Nal][Thp]K(Propionyl)NF-NH2; disulfide 2-7) gave an IC50 of 47 nM.
On to `CC(=O)N[C@H](CCCNC(=N)N)C(=O)N[C@@H]1C(=O)N[C@@H](CCC(N)=O)C(=O)N[C@@H]([C@@H](C)O)C(=O)N[C@@H](Cc2c[nH]c3ccccc23)C(=O)N[C@@H](CCC(N)=O)C(=O)N[C@H](C(=O)N[C@@H](Cc2ccc(OCCN)cc2)C(=O)N[C@@H](Cc2ccc3ccccc3c2)C(=O)NC2(C(=O)N[C@@H](CCCCNC(=O)C3CC3)C(=O)N[C@@H](CC(N)=O)C(=O)N[C@@H](Cc3ccccc3)C(N)=O)CCOCC2)C(C)(C)SSC1(C)C` [Compound 55, Ac-[(D)Arg]-[Pen]-Q-T-W-Q-[Pen]-Phe[4-(2-aminoethoxy)]-[2-Nal]-[THP]-[Lys(COcPr)]-N-F-NH2] (Ac-[dR][Pen]QTWQ[Pen][AEF][2Nal][Thp]K(Cyclopropanecarbonyl)NF-NH2; disulfide 2-7), for which the IC50 turned out to be 25 nM. This IC50 lies about 1.9-fold lower than the previous one.
Consider `CC(=O)NCCCC[C@H](NC(=O)C1(NC(=O)[C@H](Cc2ccc3ccccc3c2)NC(=O)[C@H](Cc2ccc(OCCN)cc2)NC(=O)[C@H]2NC(=O)[C@H](CCC(N)=O)NC(=O)[C@H](Cc3c[nH]c4ccccc34)NC(=O)[C@H]([C@@H](C)O)NC(=O)[C@H](CCC(N)=O)NC(=O)[C@@H](NC(=O)[C@@H](CCCNC(=N)N)NC(C)=O)C(C)(C)SSC2(C)C)CCOCC1)C(=O)N[C@@H](CC(N)=O)C(=O)NC1(C(N)=O)CCOCC1` [Compound 56, Ac-[(D)Arg]-[Pen]-Q-T-W-Q-[Pen]-Phe[4-(2-aminoethoxy)]-[2-Nal]-[THP]-[Lys(Ac)]-N-[THP]-NH2], for which 4.9 nM corresponded to half-maximal inhibition (IC50).
Regarding `CCC(=O)NCCCC[C@H](NC(=O)C1(NC(=O)[C@H](Cc2ccc3ccccc3c2)NC(=O)[C@H](Cc2ccc(OCCN)cc2)NC(=O)[C@H]2NC(=O)[C@H](CCC(N)=O)NC(=O)[C@H](Cc3c[nH]c4ccccc34)NC(=O)[C@H]([C@@H](C)O)NC(=O)[C@H](CCC(N)=O)NC(=O)[C@@H](NC(=O)[C@@H](CCCNC(=N)N)NC(C)=O)C(C)(C)SSC2(C)C)CCOCC1)C(=O)N[C@@H](CC(N)=O)C(=O)NC1(C(N)=O)CCOCC1` [Compound 57, Ac-[(D)Arg]-[Pen]-Q-T-W-Q-[Pen]-Phe[4-(2-aminoethoxy)]-[2-Nal]-[THP]-[Lys(COEt)]-N-[THP]-NH2], the IC50 came out at 18 nM. Against the preceding compound, the IC50 is about 3.7-fold higher.
